Results reported in US20260376293A1, “METHODS FOR STUDYING GPR158 PHARMACOLOGY AND IDENTIFICATION OF ITS LIGANDS” (UNIVERSITY OF FLORIDA RESEARCH FOUNDATION, INCORPORATED, priority 2022, published 2026).

Molecular target: T1, GPR158 S266A mutant (Homo sapiens, UniProt Q5T848, S266A)
T1 construct: RGS7/Gβ5 co-expressed in the GAP BRET row only
T1 sequence (Q5T848 24-1215 S266A): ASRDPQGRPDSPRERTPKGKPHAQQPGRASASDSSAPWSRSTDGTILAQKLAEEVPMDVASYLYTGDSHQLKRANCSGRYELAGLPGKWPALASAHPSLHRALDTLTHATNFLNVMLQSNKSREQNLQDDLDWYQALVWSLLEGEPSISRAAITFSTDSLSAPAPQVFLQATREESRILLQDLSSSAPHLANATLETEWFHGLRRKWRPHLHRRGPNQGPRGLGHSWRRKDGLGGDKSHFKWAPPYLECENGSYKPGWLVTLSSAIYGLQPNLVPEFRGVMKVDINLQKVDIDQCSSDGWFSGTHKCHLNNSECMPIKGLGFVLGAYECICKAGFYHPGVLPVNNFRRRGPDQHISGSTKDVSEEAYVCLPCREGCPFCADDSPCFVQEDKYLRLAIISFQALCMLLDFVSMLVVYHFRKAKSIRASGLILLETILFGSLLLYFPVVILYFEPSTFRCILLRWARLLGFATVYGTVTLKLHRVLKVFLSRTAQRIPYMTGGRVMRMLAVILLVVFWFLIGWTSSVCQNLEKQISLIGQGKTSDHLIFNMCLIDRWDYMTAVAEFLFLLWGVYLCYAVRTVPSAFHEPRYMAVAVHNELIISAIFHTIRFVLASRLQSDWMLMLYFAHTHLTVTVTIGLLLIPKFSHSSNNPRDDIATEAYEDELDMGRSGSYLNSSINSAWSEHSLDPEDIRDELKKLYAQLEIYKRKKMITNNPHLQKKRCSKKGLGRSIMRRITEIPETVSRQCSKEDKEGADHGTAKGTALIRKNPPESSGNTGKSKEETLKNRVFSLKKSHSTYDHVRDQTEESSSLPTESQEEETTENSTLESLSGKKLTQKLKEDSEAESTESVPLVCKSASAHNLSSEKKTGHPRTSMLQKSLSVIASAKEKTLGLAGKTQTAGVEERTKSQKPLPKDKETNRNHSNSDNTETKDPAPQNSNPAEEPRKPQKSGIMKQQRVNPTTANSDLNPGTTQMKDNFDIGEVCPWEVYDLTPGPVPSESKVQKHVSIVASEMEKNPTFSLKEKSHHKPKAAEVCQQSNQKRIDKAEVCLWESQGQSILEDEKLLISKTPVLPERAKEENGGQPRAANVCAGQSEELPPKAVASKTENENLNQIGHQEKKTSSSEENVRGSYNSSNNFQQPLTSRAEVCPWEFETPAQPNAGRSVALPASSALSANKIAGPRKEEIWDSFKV
Experiment: Radioligand binding assay on GPR158 mutant S266A
Source text: FIGS. 11A-11G. Probing Cache domain of GPR158 as a ligand binding site A) Computational docking of glycine into putative ligand binding pocket on GPR158 Cache domain. Glycine and directly interacting residues are shown as sticks. Hydrogen bonds and van der Waals interactions are shown as dotted lines. B) Diagram showing interactions in the docked model of glycine against GPR158 Cache domain. Hydrogen bonds are shown as dashed lines, van der Waals interactions are shown as intersecting semicircles, and the secondary structural context of Ser266 and Tyr269 is shown as an arc. Dagger indicates a residue implicated in glycine binding in 11A. C) Radioligand binding assay of ^3H-glycine in cells expressing GPR158 mutants. Data shown mean±s.e.m. of 3 independent experiments, *p<0.05, ns=p>0.05 one-way ANOVA. D) Functional evaluation of GPR158 mutants in GAP BRET assay. Error bars are mean±s.e.m. of 3 independent experiments in triplicate. *p<0.05, **p<0.01, ***p<0.001, ****p<0.0001, ns=p>0.05, two-way ANOVA Columns with no fill (Ctrl), columns with angled-line fill (Glycine) E) Quantification of glycine inhibitory effect on kGAP normalized to the effect seen with WT receptor. […]
Whole cell binding was performed using cDNA of GPR158-venus or each GPR158-venus mutant or empty pcDNA3.1+ for ctrl cells. […] Finally radioactivity was measured using the liquid scintillation analyzer Tri-Carb 4910 TR.

- glycine binding: normally bind glycine
SMILES: NCC(=O)O [glycine]
